This passage reports IC50 results from US6689806B1, “Indolinone compounds as kinase inhibitors” (Sugen, Inc., priority 1999, dated 2004).

Assay [1] deals with T1, Her2 (Homo sapiens, UniProt P04626).
T1 construct: fused on or other part: P00533 (Epidermal growth factor receptor)
The assay can be described thus: HER-2 ELISA: EGF receptor-HER2 chimeric receptor assay in whole cells (HER2 kinase). The assay is classed as cell-based. As to conditions: NIH3T3 cells with EGFR/HER2 chimeric receptor, phosphotyrosine ELISA. The procedure, abridged:
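NIH3T3 cells expressing an EGFR extracellular/HER2 kinase-domain chimera, serum-reduced (0.5%), pretreated 2 h with compound (1% DMSO final), then stimulated 5 min with 100 nM EGF at room temperature. Lysate phosphotyrosine quantified by anti-pTyr ELISA, OD 410 nm; % inhibition after negative-control subtraction.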
For orientation: An ELISA detects its analyte on a solid surface through an enzyme-linked reagent.

For assay [2], the target named is EGFR (Homo sapiens, UniProt P00533). The assay can be described thus: Biochemical EGFR assay (ELISA). Set-up: A431 cell lysate; endogenous in cells; host or cells: A431. To be noted: read-out: EGFr biochem IC50. Put shortly:
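EGFR is captured from cell lysate onto SUMO1-coated plates and incubated with compound diluted in TBS. The kinase reaction is stopped after 5 min with EDTA. Substrate phosphotyrosine is detected with anti-phosphotyrosine and peroxidase-linked secondary antibody, then ABTS/H2O2 read at 410 nm (reference 630 nm).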

The target of assay [3] is PDGFR (Homo sapiens, UniProt P09619). The assay can be described thus: Biochemical PDGFR assay (ELISA). Set-up: expressed in transfected cells; host or cells: NIH 3T3. To be noted: read-out: PDGFr biochem IC50. The procedure, abridged:
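PDGFR-β from NIH 3T3 cell lysate captured on 28D4C10-coated plates; compound preincubated 30 min, then 20 μM ATP for 30 min at room temperature and stopped with EDTA. Phosphotyrosine detected by anti-phosphotyrosine ELISA with peroxidase secondary and ABTS, read at 410 nm.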

Where [4] appears, read: Table 7, in vitro kinase activity.
The mark [5] stands for this setting: Table 5, in vitro kinase activity.

Structures are written as SMILES. Where two headings read alike, the source gives them in different places.

Sequence of PDGFR (P09619 33-1106): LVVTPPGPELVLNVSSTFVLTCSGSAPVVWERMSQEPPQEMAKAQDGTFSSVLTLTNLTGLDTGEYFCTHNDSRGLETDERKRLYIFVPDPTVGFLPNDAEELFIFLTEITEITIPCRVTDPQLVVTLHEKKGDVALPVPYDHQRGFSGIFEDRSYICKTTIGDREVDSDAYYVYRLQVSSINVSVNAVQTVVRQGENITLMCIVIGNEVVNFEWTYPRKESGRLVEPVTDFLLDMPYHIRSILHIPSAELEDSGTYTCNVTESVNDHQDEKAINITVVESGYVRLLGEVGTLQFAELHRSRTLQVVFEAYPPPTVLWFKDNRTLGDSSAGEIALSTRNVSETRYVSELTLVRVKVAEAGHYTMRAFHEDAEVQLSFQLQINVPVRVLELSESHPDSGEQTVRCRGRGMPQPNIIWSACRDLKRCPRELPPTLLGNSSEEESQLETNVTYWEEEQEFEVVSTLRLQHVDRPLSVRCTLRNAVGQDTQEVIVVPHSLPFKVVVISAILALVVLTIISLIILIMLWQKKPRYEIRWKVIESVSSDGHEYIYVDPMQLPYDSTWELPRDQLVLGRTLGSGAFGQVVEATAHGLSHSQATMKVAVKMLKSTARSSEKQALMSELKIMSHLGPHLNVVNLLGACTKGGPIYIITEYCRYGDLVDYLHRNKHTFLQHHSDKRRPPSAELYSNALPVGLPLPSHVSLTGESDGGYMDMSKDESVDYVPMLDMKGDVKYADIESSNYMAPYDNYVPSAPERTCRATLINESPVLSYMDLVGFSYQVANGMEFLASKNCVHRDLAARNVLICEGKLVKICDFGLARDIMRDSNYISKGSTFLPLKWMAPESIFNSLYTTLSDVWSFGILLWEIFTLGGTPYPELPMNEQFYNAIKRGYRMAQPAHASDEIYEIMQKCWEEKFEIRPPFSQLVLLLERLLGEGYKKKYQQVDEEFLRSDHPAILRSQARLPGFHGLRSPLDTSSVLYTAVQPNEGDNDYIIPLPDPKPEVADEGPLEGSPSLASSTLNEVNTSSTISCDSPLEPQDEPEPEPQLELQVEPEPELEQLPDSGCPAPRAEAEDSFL
Sequence of EGFR (P00533 25-1210): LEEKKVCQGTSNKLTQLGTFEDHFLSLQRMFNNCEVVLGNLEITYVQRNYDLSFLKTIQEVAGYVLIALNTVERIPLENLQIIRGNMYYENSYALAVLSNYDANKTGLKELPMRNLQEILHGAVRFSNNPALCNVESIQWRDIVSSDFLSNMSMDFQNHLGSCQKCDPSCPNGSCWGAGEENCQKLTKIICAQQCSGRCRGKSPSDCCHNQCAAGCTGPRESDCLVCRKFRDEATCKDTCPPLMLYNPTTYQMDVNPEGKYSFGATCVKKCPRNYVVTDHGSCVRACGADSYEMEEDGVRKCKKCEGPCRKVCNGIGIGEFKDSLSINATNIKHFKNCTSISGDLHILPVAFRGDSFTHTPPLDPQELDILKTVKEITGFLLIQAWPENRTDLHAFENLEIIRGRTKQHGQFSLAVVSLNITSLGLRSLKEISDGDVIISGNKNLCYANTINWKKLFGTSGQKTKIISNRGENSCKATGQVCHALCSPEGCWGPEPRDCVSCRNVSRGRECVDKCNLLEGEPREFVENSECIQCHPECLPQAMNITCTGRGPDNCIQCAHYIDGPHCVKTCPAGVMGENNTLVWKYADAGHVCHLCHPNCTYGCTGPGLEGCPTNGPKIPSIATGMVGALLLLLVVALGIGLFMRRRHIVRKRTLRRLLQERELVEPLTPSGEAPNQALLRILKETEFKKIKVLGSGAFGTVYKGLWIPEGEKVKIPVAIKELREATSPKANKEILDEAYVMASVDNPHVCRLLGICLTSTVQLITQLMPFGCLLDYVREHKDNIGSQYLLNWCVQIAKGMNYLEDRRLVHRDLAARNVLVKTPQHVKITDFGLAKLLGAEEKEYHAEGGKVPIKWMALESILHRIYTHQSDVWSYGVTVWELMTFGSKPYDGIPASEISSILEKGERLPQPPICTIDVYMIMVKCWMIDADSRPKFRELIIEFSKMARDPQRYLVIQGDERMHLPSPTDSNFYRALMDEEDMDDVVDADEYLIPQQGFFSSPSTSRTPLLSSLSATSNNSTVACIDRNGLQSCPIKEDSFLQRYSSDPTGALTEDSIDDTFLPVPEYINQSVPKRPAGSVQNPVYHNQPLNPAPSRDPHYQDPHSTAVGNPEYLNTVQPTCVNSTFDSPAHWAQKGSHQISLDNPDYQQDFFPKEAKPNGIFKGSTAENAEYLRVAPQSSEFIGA
T1 sequence (P04626 676-1255 limits assumed): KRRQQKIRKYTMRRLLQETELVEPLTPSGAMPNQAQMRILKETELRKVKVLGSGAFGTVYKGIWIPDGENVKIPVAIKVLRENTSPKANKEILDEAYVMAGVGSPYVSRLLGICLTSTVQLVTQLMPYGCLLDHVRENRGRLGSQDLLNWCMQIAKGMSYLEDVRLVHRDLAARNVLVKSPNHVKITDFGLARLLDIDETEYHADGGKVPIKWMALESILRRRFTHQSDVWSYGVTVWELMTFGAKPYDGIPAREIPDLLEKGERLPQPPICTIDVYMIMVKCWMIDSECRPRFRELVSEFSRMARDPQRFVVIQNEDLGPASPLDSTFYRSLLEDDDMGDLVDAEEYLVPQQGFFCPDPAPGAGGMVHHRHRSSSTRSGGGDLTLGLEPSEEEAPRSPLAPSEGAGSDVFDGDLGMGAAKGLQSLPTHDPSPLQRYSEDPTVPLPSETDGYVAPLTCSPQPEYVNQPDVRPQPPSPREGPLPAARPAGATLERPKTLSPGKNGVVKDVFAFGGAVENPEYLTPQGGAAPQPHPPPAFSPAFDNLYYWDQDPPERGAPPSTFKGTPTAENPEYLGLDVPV

As to `Cc1ccc(O)c(C=C2C(=O)Nc3cccc(CCO)c32)n1` (racemic) [IN-022, 4-(2-Hydroxy-ethyl)-3-(3-hydroxy-6-methyl-pyridin-2-ylmethylene)-1,3-dihydro-indol-2-one], the IC50 in assay [1] (Table 7), in assay [2] (setting [4]) and in assay [3] (setting [4]) was greater than 100 µM each time.
Turning to `COc1ccc(CC2C(=O)Nc3ccc(F)cc32)cc1C1CCCC1` (stereo not drawn) [AAI-5, 3-(3-Cyclopentyl-4-methoxybenzyl)-5-fluoro-1,3-dihydroindol-2-one], the values for the IC50 in assay [1] (Table 5), in assay [2] (setting [5]) and in assay [3] (setting [5]) were 16.4 µM, greater than 100 µM and greater than 100 µM, respectively.
Consider `COc1ccc(CC2C(=O)Nc3cc(NC(C)=O)ccc32)cc1-c1cccs1` (stereo not drawn) [AAI-6, N-[3-(4-Methoxy-3-thiophen-2-ylbenzyl)-2-oxo-2,3-dihydro-1H-indol-6-yl]-acetamide], for which the IC50 in assay [1] (Table 5), in assay [2] (setting [5]) and in assay [3] (setting [5]) was greater than 100 µM in each case.
For `CC(=O)Nc1ccc2c(c1)NC(=O)C2Cc1ccc(OCCN2CCOCC2)c(C2CCCCC2)c1` (stereo not drawn) [AAI-7, N-{3-[3-Cyclohexyl-4-(2-morpholin-4-ylethoxy)-benzyl]-2-oxo-2,3-dihydro-1H-indol-6-yl}-acetamide], the IC50 in assay [1] (Table 5), in assay [2] (setting [5]) and in assay [3] (setting [5]) was greater than 100 µM in each case.
Consider `COc1ccc(CC2C(=O)Nc3ccc(CCN4CCOCC4)cc32)cc1-c1ccsc1` (stereo not drawn) [AAI-8, 3-(4-Methoxy-3-thiophen-3-ylbenzyl)-5-(2-morpholin-4-ylethyl)-1,3-dihydroindol-2-one], for which the IC50 in assay [1] (Table 5), in assay [2] (setting [5]) and in assay [3] (setting [5]) was greater than 100 µM in each case.
On to `COc1c(C(C)C)cc(CC2C(=O)Nc3ccccc32)cc1C(C)C` (stereo not drawn) [AAI-10, 3-(3,5-Diisopropyl-4-methoxybenzyl)-1,3-dihydroindol-2-one], for which the values for the IC50 in assay [1] (Table 5), in assay [2] (setting [5]) and in assay [3] (setting [5]) were 22.2 µM, greater than 100 µM and greater than 100 µM, respectively.
In the case of `O=C1Nc2ccc(F)cc2C1Cc1ccc(O)c(C2CCCC2)c1` (stereo not drawn) [AAI-11, 3-(3-Cyclopentyl-4-hydroxybenzyl)-5-fluoro-1,3-dihydroindol-2-one], the IC50 in assay [1] (Table 5), in assay [2] (setting [5]) and in assay [3] (setting [5]) was greater than 100 µM in each case.
For `COc1cccc(-c2ccc3c(c2)NC(=O)C3Cc2ccccc2O)c1` (stereo not drawn) [AAI-13, 3-(2-Hydroxybenzyl)-6-(3-methoxyphenyl)-1,3-dihydroindol-2-one], the IC50 in assay [1] (Table 5), in assay [2] (setting [5]) and in assay [3] (setting [5]) was greater than 100 µM throughout.
As for `Cc1cccc2c1C(Cc1ccc3[nH]ccc3c1)C(=O)N2` (stereo not drawn) [AAI-16, 3-(1H-Indol-5-ylmethyl)-4-methyl-1,3-dihydroindol-2-one], the IC50 in assay [1] (Table 5), in assay [2] (setting [5]) and in assay [3] (setting [5]) was greater than 100 µM in each case.
As to `O=C1Nc2ccccc2C1Cc1ccc2[nH]ccc2c1` (stereo not drawn) [AAI-17, 3-(1H-Indol-5-ylmethyl)-1,3-dihydroindol-2-one], the IC50 in assay [1] (Table 5), in assay [2] (setting [5]) and in assay [3] (setting [5]) was greater than 100 µM throughout.
Regarding `Cc1[nH]c(CC2C(=O)Nc3ccccc32)c(C)c1CCCN(C)C` (stereo not drawn) [AAI-18, 3-[4-(3-Dimethylaminopropyl)-3,5-dimethyl-1H-pyrrol-2-ylmethyl]-1,3-dihydroindol-2-one], the results for the IC50 in assay [1] (Table 5), in assay [2] (setting [5]) and in assay [3] (setting [5]) were 28.5 µM, greater than 100 µM and 0.56 µM, respectively.
The matching figures for `COc1ccccc1-c1ccc2c(c1)NC(=O)C2Cc1[nH]c(C)c(CCCN(C)C)c1C` (stereo not drawn) [AAI-20, 3-[4-(3-Dimethylamino-propyl)-3,5-dimethyl-1H-pyrrol-2-ylmethyl]-6-(2-methoxy-phenyl)-1,3-dihydro-indol-2-one]: 20.9 µM, greater than 100 µM and 2.13 µM.
The matching figures for `COc1cccc(-c2ccc3c(c2)NC(=O)C3Cc2[nH]c(C)c(CCCN(C)C)c2C)c1` (stereo not drawn) [AAI-21, 3-[4-(3-Dimethylaminopropyl)-3,5-dimethyl-1H-pyrrol-2-ylmethyl]-6-(3-methoxyphenyl)-1,3-dihydroindol-2-one]: 52.9 µM, 48.7 µM and 3.42 µM.
Take `COc1ccc(-c2ccc3c(c2)NC(=O)C3Cc2[nH]c(C)c(CCCN(C)C)c2C)cc1` (stereo not drawn) [AAI-22, 3-[4-(3-Dimethylaminopropyl)-3,5-dimethyl-1H-pyrrol-2-ylmethyl]-6-(4-methoxyphenyl)-1,3-dihydroindol-2-one]: the IC50 (usually the midpoint of a concentration-inhibition curve) in assay [1] (Table 5) was 21.4 µM; in assay [2] (setting [5]), greater than 100 µM; in assay [3] (setting [5]) it was 80 µM.
For `Cc1[nH]c(CC2C(=O)Nc3ccc(Cl)cc32)c(C)c1CCCN(C)C` (stereo not drawn) [AAI-23, 5-Chloro-3-[4-(3-dimethylaminopropyl)-3,5-dimethyl-1H-pyrrol-2-ylmethyl]-1,3-dihydroindol-2-one], the IC50 in assay [1] (Table 5) was 54.1 µM; in assay [2] (setting [5]), greater than 100 µM; in assay [3] (setting [5]), 0.81 µM.
For the compound `O=C1Nc2cc(-c3ccccc3)ccc2C1Cc1cccc(F)c1O` (stereo not drawn) [AAI-24, 3-(3-Fluoro-2-hydroxybenzyl)-6-phenyl-1,3-dihydroindol-2-one], the IC50 in assay [1] (Table 5) was 26.1 µM; in assay [2] (setting [5]), greater than 100 µM; in assay [3] (setting [5]) it was greater than 100 µM.
For the compound `COc1ccc(CC2C(=O)Nc3cc(-c4ccccc4)ccc32)c(O)c1` (stereo not drawn) [AAI-25, 3-(2-Hydroxy-4-methoxybenzyl)-6-phenyl-1,3-dihydroindol-2-one], the IC50 in assay [1] (Table 5), in assay [2] (setting [5]) and in assay [3] (setting [5]) was greater than 100 µM throughout.
With `Cc1cccc(CC2C(=O)Nc3cccc(CCO)c32)n1` (stereo not drawn) [AAI-27, 4-(2-Hydroxyethyl)-3-(6-methylpyridin-2-ylmethyl)-1,3-dihydroindol-2-one], the IC50 in assay [1] (Table 5), in assay [2] (setting [5]) and in assay [3] (setting [5]) was greater than 100 µM in each case.
On to `CC(C)c1cccc(OCCc2cccc3c2CC(=O)N3)c1` [IN-001, 4-[2-(3-Isopropyl-phenoxy)-ethyl]-1,3-dihydro-indol-2-one], for which the IC50 in assay [1] (Table 7) is 16.6 µM; in assay [2] (setting [4]), greater than 100 µM; in assay [3] (setting [4]) it was greater than 100 µM.
Turning to `CC(C)c1ccccc1OCCc1cccc2c1CC(=O)N2` [IN-002, 4-[2-(2-Isopropyl-phenoxy)-ethyl]-1,3-dihydro-indol-2-one], the IC50 was 18 µM in assay [1] (Table 7), greater than 100 µM in assay [2] (setting [4]) and greater than 100 µM in assay [3] (setting [4]).
On to `O=C1Cc2c(CCOc3cccc(-c4ccccc4)c3)cccc2N1` [IN-003, 4-[2-(Biphenyl-3-yloxy)-ethyl]-1,3-dihydro-indol-2-one], for which the results for the IC50 in assay [1] (Table 7), in assay [2] (setting [4]) and in assay [3] (setting [4]) were 15.5 µM, greater than 100 µM and 20.2 µM, respectively.
The matching figures for `O=C1Nc2cccc(CCO)c2/C1=C\c1ccc(Br)cc1` [IN-004, 3-(4-Bromo-benzylidene)-4-(2-hydroxy-ethyl)-1,3-dihydro-indol-2-one]: 10.6 µM, greater than 100 µM and greater than 100 µM.
The matching figures for `O=C1Nc2cccc(CCO)c2/C1=C/c1ccccn1` [IN-005, 4-(2-Hydroxy-ethyl)-3-pyridin-2-ylmethylene-1,3-dihydro-indol-2-one]: 12.9 µM, greater than 100 µM and greater than 100 µM.
Taken in the same sequence, the figures for `Cc1cccc(/C=C2\C(=O)Nc3cccc(CCO)c32)n1` [IN-006] were 10.6 µM, greater than 100 µM and greater than 100 µM.
In the case of `COc1ccc(/C=C2\C(=O)Nc3cccc(CCO)c32)cc1-c1cccs1` [IN-008, 4-(2-Hydroxy-ethyl)-3-(4-methoxy-3-thiophen-2-yl-benzylidene)-1,3-dihydro-indol-2-one], the IC50 in assay [1] (Table 7) was 8.5 µM; in assay [2] (setting [4]), greater than 100 µM; in assay [3] (setting [4]), greater than 100 µM.
In the case of `Cc1[nH]c(/C=C2\C(=O)Nc3cccc(CCOc4cccc(C(C)C)c4)c32)c(C)c1CCCN(C)C` [IN-023], the figures for the IC50 in assay [1] (Table 7), in assay [2] (setting [4]) and in assay [3] (setting [4]) were greater than 100 µM, greater than 100 µM and 49.1 µM, respectively.
Consider `Cc1[nH]c(/C=C2\C(=O)Nc3cccc(CCOc4ccc(C(C)C)cc4)c32)c(C)c1CCC(=O)O` [IN-024, 3-(5-{4-[2-(4-Isopropyl-phenoxy)-ethyl]-2-oxo-1,2-dihydro-indol-3-ylidenemethyl}-2,4-dimethyl-1H-pyrro-3-yl)-propionic acid], for which the IC50 in assay [1] (Table 7) was greater than 100 µM; in assay [2] (setting [4]) it was greater than 100 µM; in assay [3] (setting [4]) it was 97.5 µM.
